ChEMBL document CHEMBL5055665, “Discovery of the Triazolo[1,5-a]Pyrimidine-Based Derivative WS-898 as a Highly Efficacious and Orally Bioavailable ABCB1 Inhibitor Capable of Overcoming Multidrug Resistance” (J Med Chem, 2021)

Columns and labels:
SW-620 [1] = experiment: Antitumor activity against human SW-620/AD300 cells xenografted in BALB/c nude mouse assessed as tumor growth inhibition at 5 mg/kg, iv administered once ever 3 days for 21 days; assay type: functional; set-up: scale not given: the % may be the effect or the level left
Mus musculus [2] = experiment: Toxicity in BALB/c mouse xenografted with human SW-620/AD300 cells assessed as mortality at 5 mg/kg, iv administered once every 3 days; assay type: organism-based; conditions: in vivo, 72 h, time 3 day
Mus musculus [3] = experiment: Toxicity in BALB/c mouse xenografted with human SW-620/AD300 cells assessed as change in body weight at 5 mg/kg, iv administered once every 3 days; assay type: organism-based; conditions: in vivo, 72 h, time 3 day
HEK293 [4] = experiment: Reversal of resistance to paclitaxel-induced cytotoxicity in human HEK293/pcDNA3.1 cells assessed as reduction in paclitaxel IC50 at 4 uM preincubated for 4 hrs followed by paclitaxel addition and measured after 72 hrs by MTT assay (reference value: 1.93 +/- 0.06 nM); assay type: functional, cell-based
HEK293 [5] = experiment: Reversal of resistance to paclitaxel-induced cytotoxicity in human HEK293/ABCB1 cells assessed as reduction in paclitaxel IC50 at 4 uM preincubated for 4 hrs followed by paclitaxel addition and measured after 72 hrs by MTT assay (reference value: 91.40 +/- 23.32 nM); assay type: functional, cell-based
SW-620 [6] = experiment: cells; conditions: Homo sapiens
SW-620 [7] = experiment: cells; conditions: Homo sapiens; remark: listed apart in the source
KB 3-1 = experiment: Reversal of resistance to paclitaxel-induced cytotoxicity in human KB 3-1 cells assessed as reduction in paclitaxel IC50 at 4 uM preincubated for 4 hrs followed by paclitaxel addition and measured after 72 hrs by MTT assay (reference value: 4.54 +/- 1.59 nM); assay type: functional, cell-based
KB-C2 = experiment: Reversal of resistance to paclitaxel-induced cytotoxicity in human KB-C2 cells assessed as reduction in paclitaxel IC50 at 4 uM preincubated for 4 hrs followed by paclitaxel addition and measured after 72 hrs by MTT assay (reference value: 1886.37 +/- 243.05 nM); assay type: functional, cell-based

IC50 (SW-620 [6]) [nM] | IC50 (SW-620 [7]) [nM] | Structure (SMILES) | Activity (SW-620 [1]) [%] | Activity (Mus musculus [2]) | Activity (Mus musculus [3]) | IC50 (HEK293 [4]) [nM] | IC50 (HEK293 [5]) [nM] | IC50 (KB 3-1) [nM] | IC50 (KB-C2) [nM]
 |  | CC(=O)O[C@H]1C(=O)[C@@]2(C)[C@H]([C@H](OC(=O)c3ccccc3)[C@]3(O)C[C@H](OC(=O)[C@H](O)[C@@H](NC(=O)c4ccccc4)c4ccccc4)C(C)=C1C3(C)C)[C@]1(OC(C)=O)CO[C@@H]1C[C@@H]2O [PACLITAXEL] | 32 | Non-Toxic | Non-Toxic |  |  |  | 
300 | 7.11 | COc1ccc(CCN(C)CCCC(C#N)(c2ccc(OC)c(OC)c2)C(C)C)cc1OC (centres undefined) |  |  |  | 1.62 | 10400 | 3.84 | 7.05
